Measured values taken from article PMC10541198, “Specific quinone reductase 2 inhibitors reduce metabolic burden and reverse Alzheimer’s disease phenotype in mice” (The Journal of Clinical Investigation, 2023).
“And” between values parts separate entries of the source, which are not always exact repeats. Identical values can stand only once.

Tested on: QR2Δ HCT116 cells
Assay: H2DCFDA detection of cellular ROS in QR2 KO cells
Assay type: cell-based, human
Conditions: 20 μM, 3 hour
Description: To establish direct target engagement and cell membrane permeability, a cellular thermal shift assay (CETSA) was carried out, using leading QR2is YB’s-537, 800, and 808. Following a 1 hour preincubation with 5 μM of the QR2is or vehicle, thermal aggregation curves (Taggs) of QR2 expressed in HEK293T were measured in increasing temperatures. All QR2is increased QR2 thermal stability compared with vehicle (Supplemental Figure 2A). Based on the Tagg curves we selected 73°C for isothermal dose-response fingerprint (IDTRF) experiments (Supplemental Figure 2B). The ITDRF allowed the relative quantification of the binding of each of the QR2is to QR2, measured as the EC50 (Figure 3A). […] We evaluated the safety of the QR2is using cell toxicity and viability assays. […] Cell viability was assessed by XTT assay in HEK239T cells, using a dose response, with 3- or 24-hour incubations of the leading QR2is. […] We then assessed WT HCT116 cells by immunoblot (Supplemental Figure 2, C and D), after being treated with YB-800 (2 μM) for 4 consecutive days. […]
The cells wer e har ves t ed a nd resuspended in 1% cl ear m e di um ( DM EM – with no phenol red, suppl em ent ed with 1% FBS, 1% L-Glutamine and 1% Penicillin-Streptomycin). […] The plate wa s then incubated in the dark at 37°C f or 3 h, before reading in a Tecan M200 Pro florescence microplate reader, using wavelengths Ex/Em = 485 nm / 535 nm . […]

SMILES: Cc1ccc(-c2cn3cccc(C)c3n2)cc1S(=O)(=O)N1CCC(C)CC1 [YB-800]
- ROS levels (replicates): 0.1657 and -0.09332 and -0.11 and 0.01889 and -0.0308
